What was measured:
Assay in all cases: PTP IC50 assay, pNPP or FDP as substrate
Assay type in all cases: biochemical
PTP EPSILON = molecular target: T1, PTP EPSILON (Homo sapiens, UniProt P23469); conditions: pNPP or FDP as substrate, 25° C.; read-out: PTP IC50 Epilson
T1 construct: made in house; host or cells: Sf-9 insect cells (pFastBac-G2T); a pGEX 6P-1 construct also existed
Method: (§1) The following in vitro assay procedure is preferred to determine the level of activity and effect of the different compounds of the present invention on one or more of the PTPs. Similar assays can be designed along the same lines for any PTP using techniques well known in the art.
(§2) The catalytic assays described herein are performed in a 96-well format. The general procedure begins with the determination of PTP optimal pH using a three-component buffer system that minimizes ionic strength variations across a wide range of buffer pH. Next, the Michaelis-Menten constant, or Km, is determined for each specific substrate-PTP system. This Km value is subsequently used as the substrate reaction concentration for compound screening. Finally, the test PTP is exposed to varying concentrations of compound for fifteen minutes and allowed to react with substrate for ten minutes. The results are plotted as percent inhibition versus compound concentration and the IC50 interpolated from the plot.
(§3) All assays were performed using pNPP or FDP as substrate. The optimum pH was determined for each PTP used.
(§4) PTPase activity was assayed at 25° C. in a 100-μl reaction mixture containing an appropriate concentration of pNPP or FDP as substrate. The reaction was initiated by addition of the PTP and quenched after 10 min by addition of 50 μl of IN NaOH. The non-enzymatic hydrolysis of the substrate was corrected by measuring the control without the addition of the enzyme. The amount of p-nitrophenol produced was determined from the absorbance at 410 nm. To determine the kinetic parameter, Km, the initial velocities were measured at various substrate concentrations and the data were fitted to the Michaelis equation where velocity=(Vmax*[S])/(Km+[S]), and [S]=substrate reaction concentration.
(§5) The effect of the compounds on PTP was evaluated at 25° C. using pNPP or FDP as substrate. PTP was pre-incubated for fifteen minutes with various concentrations of compound. Substrate was then added at a fixed concentration (usually equal to the Km previously calculated). After 10 minutes, NaOH was added to stop the reaction. The hydrolysis of pNPP was followed at 410 nm on the Biotek Powerwave 200 microplate scanning spectrophotometer. The percent inhibition was calculated as follows: Percent Inhibition=[(control signal−compound signal)/control signal] ×100%. The IC50 was then determined by interpolation of a percent inhibition versus compound concentration plot.
(§6) Plasmids designed for bacterial GST-PTP fusion protein expression were derived by insertion of PCR-generated human PTP fragments into pGEX vectors (Pharmacia Biotech). Several of these constructs were then used to subclone phosphatases into pFastBac-1for expression in Sf-9 insect cells. Oligonucleotides used for the initial amplification of PTP genes are shown below. The cDNAs were prepared using the Gilbo BRL superscript preamplification system on RNAs purchased from Clontech.
The PTPepsilon cDNA was amplified from human placenta single-strand cDNA (Clontech RNA) using the following oligonucleotides: 5′oligo: 5′-[…]-3′ (SEQ ID NO: 6) 3′oligo: 5′-[…]-3′ (SEQ ID NO: 7) After cloning this PCR product into the Bam HI/Xho I sites of pGEX 6P-1, this phosphatase was subcloned using the same restriction sites in pFastBac-G2T.

PTP 1B = molecular target: T2, PTP 1B (Homo sapiens, UniProt P18031); conditions: pNPP or FDP as substrate, 25° C.; read-out: PTP IC50 1B
T2 construct: made in house; host or cells: Sf-9 insect cells (pFastBac-G2T)
T2 sequence (P18031 1-435): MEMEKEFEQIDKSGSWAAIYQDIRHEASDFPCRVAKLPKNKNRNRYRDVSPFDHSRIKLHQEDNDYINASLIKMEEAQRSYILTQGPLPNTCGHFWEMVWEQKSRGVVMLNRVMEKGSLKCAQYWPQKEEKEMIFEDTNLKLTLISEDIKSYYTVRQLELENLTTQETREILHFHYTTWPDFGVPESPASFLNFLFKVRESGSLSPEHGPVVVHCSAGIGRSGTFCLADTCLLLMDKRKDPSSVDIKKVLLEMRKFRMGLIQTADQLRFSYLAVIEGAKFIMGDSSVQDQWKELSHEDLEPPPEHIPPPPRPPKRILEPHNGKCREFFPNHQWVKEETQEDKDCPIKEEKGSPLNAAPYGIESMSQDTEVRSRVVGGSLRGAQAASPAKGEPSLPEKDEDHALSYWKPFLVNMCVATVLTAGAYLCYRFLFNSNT
Method: as §1, §2, §3, §4, §5, §6
The PTP1b cDNA was amplified from human placenta single strand cDNA (Clontech RNA) using the following oligonucleotides: 5′oligo: 5′-[…] (SEQ ID NO: 4) 3′oligo: 5′-[…] (SEQ ID NO: 5) It was subsequently ligated into pFasBac G2TBamH1Xba-1 sites.

PTP BETA = molecular target: T3, PTP BETA (Homo sapiens, UniProt P23467); conditions: pNPP or FDP as substrate, 25° C.; read-out: PTP IC50 Beta
T3 construct: The catalytic domain was amplified using the following oligonucleotides; made in house; host or cells: E. coli BL-21 (pGEX 6P-1)
Method: as §1, §2, §3, §4, §5, §6
The PTP Beta cDNA used has been described earlier (Levy et al., 1993, J. Biol. Chem, 268:10573-10581). The catalytic domain was amplified using the following oligonucleotides: 5′oligo: 5′-[…]-3′ (SEQ ID NO: 16) 3′oligo: 5′-[…]-3′ (SEQ ID NO: 17) and subsequently cloned into the Eco RI/Xho I sites of pGEX 6P-1.

PTP MU = molecular target: T4, PTP MU (Homo sapiens, UniProt P28827); conditions: pNPP or FDP as substrate, 25° C.; read-out: PTP IC50 Mu
T4 construct: made in house; host or cells: E. coli BL-21 (pGEX 6P-1)
T4 sequence (P28827 831-1186 limits assumed): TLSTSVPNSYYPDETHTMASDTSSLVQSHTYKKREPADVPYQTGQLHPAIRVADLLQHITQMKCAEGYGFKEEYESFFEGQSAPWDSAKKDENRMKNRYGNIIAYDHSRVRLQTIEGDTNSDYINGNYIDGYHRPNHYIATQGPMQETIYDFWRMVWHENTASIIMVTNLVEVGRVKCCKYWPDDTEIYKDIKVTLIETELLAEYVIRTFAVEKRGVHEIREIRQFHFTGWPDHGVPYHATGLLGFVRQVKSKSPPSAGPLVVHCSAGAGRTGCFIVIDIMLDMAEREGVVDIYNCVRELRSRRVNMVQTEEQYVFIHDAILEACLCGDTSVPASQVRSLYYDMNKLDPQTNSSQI

T3 sequence (P23467 1653-1997): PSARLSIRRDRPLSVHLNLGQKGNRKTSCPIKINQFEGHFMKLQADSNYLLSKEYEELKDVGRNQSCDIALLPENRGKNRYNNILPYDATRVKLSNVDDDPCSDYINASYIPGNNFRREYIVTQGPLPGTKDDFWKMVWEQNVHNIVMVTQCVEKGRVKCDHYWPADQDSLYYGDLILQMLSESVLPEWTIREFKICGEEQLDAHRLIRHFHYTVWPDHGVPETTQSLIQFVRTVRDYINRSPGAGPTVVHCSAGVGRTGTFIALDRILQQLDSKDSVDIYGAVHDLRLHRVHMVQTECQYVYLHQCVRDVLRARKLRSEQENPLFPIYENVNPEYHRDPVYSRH
T1 sequence (P23469 80-393 limits assumed): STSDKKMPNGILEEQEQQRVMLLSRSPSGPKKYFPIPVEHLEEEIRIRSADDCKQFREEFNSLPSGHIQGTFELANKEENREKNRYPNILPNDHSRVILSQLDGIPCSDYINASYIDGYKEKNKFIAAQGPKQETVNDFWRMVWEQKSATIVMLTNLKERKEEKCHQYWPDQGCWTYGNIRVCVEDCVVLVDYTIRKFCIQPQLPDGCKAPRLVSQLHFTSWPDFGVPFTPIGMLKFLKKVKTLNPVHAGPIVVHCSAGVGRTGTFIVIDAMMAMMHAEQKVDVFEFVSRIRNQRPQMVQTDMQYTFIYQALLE

Structure (SMILES)	IC50 (PTP EPSILON)	IC50 (PTP 1B)	IC50 (PTP BETA)	IC50 (PTP MU)
O=C(Cc1cccc(CC(=O)Nc2cccc(S(=O)(=O)C(F)(F)F)c2)c1)Nc1cccc(S(=O)(=O)C(F)(F)F)c1 [Example 21, N-(3-Trifluoromethanesulfonyl-phenyl)-2-{3-[(3-trifluoromethanesulfonyl-phenylcarbamoyl)-methyl]-phenyl}-acetamide]	57.8 µM	35.3 µM	3.1 µM	47.7 µM
O=S(=O)(Nc1ccc(Oc2cccc(Oc3ccc(NS(=O)(=O)C(F)(F)F)cc3)c2)cc1)C(F)(F)F [Example 74, 1,3-Bis(4-trifluoromethylsulfonamidophenoxy)benzene]	1.8 µM	7.7 µM	26.6 µM	3.9 µM
O=S(=O)(c1ccc(COCc2ccc(S(=O)(=O)C(F)(F)F)cc2)cc1)C(F)(F)F [Example 1, Bis (4-trifluoromethylsulfonylbenzyl) ether]	24.3 µM	> 100 µM	5.9 µM	> 100 µM
O=C(O)Cc1cccc(CC(=O)Nc2cccc(S(=O)(=O)C(F)(F)F)c2)c1 [Example 28, {3-[(3-Trifluoromethanesulfonyl-phenylcarbamoyl)-methyl]-phenyl}-acetic acid]	3.1 µM	27.6 µM	3.2 µM	> 100 µM
CCNc1ccc(S(=O)(=O)C(F)(F)F)cc1NC(=O)Cc1ccc(S(C)(=O)=O)cc1 [Example 25, N-(2-Ethylamino-5-trifluoromethanesulfonyl-phenyl)-2-(4-methanesulfonyl-phenyl)-acetamide]	41.4 µM	16.4 µM	0.35 µM	48.8 µM
COC(=O)c1ccc(OCCOc2ccc(S(=O)(=O)C(F)(F)F)cc2[N+](=O)[O-])cc1 [Example 14, 4-[2-(2-nitro-4-trifluoromethanesulfonyl-phenoxy)-ethoxy]-benzoic acid methyl ester]	> 100 µM	> 100 µM	13.4 µM	> 100 µM
O=S(=O)(c1ccc(COc2ccc(S(=O)(=O)C(F)(F)F)cc2)cc1)C(F)(F)F [Example 2, 4-Trifluoromethylsulfonylbenzyl 4-trifluoromethylsulfonylphenyl ether]	8.1 µM	55.7 µM	3.5 µM	> 100 µM
